Measurements from patent publication US20080102042A1, “Oral Composition” (KYOWA HAKKO KOGYO CO., LTD., priority 2004, published 2008).

Key:
[1] = tested on: advanced alveolar pyorrhea; assay: Test Example 1: injection into the periodontal pocket of a patient with advanced alveolar pyorrhea, with gingival massage; assay type: in vivo, human; settings: buffered saline (pH 7.0) containing 2.5% by weight, 0.8 ml into periodontal pocket, gingiva massaged, twice a day for two weeks; one patient
Experimental: Buffered saline (pH 7.0) containing 2.5% by weight of N-acetylhydroxyproline (0.8 ml) was injected into the periodontal pocket of a patient with advanced alveolar pyorrhea and the gingiva was lightly massaged.

alveolar pyorrhea = assay: Test Example 2: injection into the periodontal pocket of a patient with alveolar pyorrhea (big periodontal pocket, loose tooth), then continued toothbrushing; assay type: in vivo, human
Experimental: This treatment was carried out after toothbrushing three times a day for two weeks. […] Thereafter, toothbrusing was continuously carried out using a very fine toothbrush with buffered saline (pH 7.0) containing 2.5% by weight of N-acetylhydroxyproline on it with massage of the gingiva and the inside of the periodontal pocket. This toothbrusing was carried out for more than three minutes three times a day.

[2] = buffered saline (pH 7.0) containing 2.5% by weight, 0.8 ml into periodontal pocket, after toothbrushing three times a day for two weeks, one patient

CC(=O)N1C[C@H](O)C[C@H]1C(=O)O [N-acetylhydroxyproline, N-acetyl-trans-4-hydroxy-L-proline]
symptoms of alveolar pyorrhea [1]: remarkably improved
looseness of the tooth (alveolar pyorrhea; [2]): remarkably improved
pain of alveolar pyorrhea (alveolar pyorrhea; [2]): completely disappeared
healthy state without pain or looseness of tooth (prevention of recurrence) (alveolar pyorrhea; thereafter continued toothbrushing with buffered saline (pH 7.0) containing 2.5% by weight, more than three minutes three times a day): could be maintained
